Assay results: patent US8759510B2, “Nucleoside cyclicphosphates” (Gilead Pharmasset LLC, priority 2008, dated 2014)
Like-named read-outs stand apart in the source and are kept apart here.

Test system: HCV replicon RNA-containing Huh7 cells (clone A cells)
Experiment: HCV replicon assay
Type: cell-based
Settings: incubation 4 days, replicon RNA by RT-PCR, ΔCt of 3.3 = 1-log 10 reduction (EC90)
Description: HCV replicon assay. HCV replicon RNA-containing Huh7 cells (clone A cells; Apath, LLC, St. Louis, Mo.) were kept at exponential growth in Dulbecco's modified Eagle's medium (high glucose) containing 10% fetal bovine serum, 4 mM L-glutamine and 1 mM sodium pyruvate, 1× nonessential amino acids, and G418 (1,000 μg/ml). Antiviral assays were performed in the same medium without G418. Cells were seeded in a 96-well plate at 1,500 cells per well, and test compounds were added immediately after seeding. Incubation time 4 days. At the end of the incubation step, total cellular RNA was isolated (RNeasy 96 kit; Qiagen). Replicon RNA and an internal control (TaqMan rRNA control reagents; Applied Biosystems) were amplified in a single-step multiplex RT-PCR protocol as recommended by the manufacturer. The HCV primers and probe were designed with Primer Express software (Applied Biosystems) and covered highly conserved 5′-untranslated region (UTR) sequences (sense primer: 5′-AGCCATGGCGTTAGTA(T)GAGTGT-3′ (SEQ ID NO: 1); antisense primer: 5′-TTCCGCAGACCACTATGG-3′ (SEQ ID NO:2); and probe; 5′-FAM-[…]-TAMRA-3′ (SEQ ID NO:3)).
To express the antiviral effectiveness of a compound, the threshold RT-PCR cycle of the test compound was subtracted from the average threshold RT-PCR cycle of the no-drug control (ΔCtHCV). A ΔCt of 3.3 equals a 1-log 10 reduction (equal to the 90% effective concentration [EC90]) in replicon RNA levels. The cytotoxicity of the test compound could also be expressed by calculating the ΔCtrRNA values. The ΔΔCt specificity parameter could then be introduced (ΔCtHCV-ΔCtrRNA), in which the levels of HCV RNA are normalized for the rRNA levels and calibrated against the no-drug control.

[1] = Hepatitis C virus, Huh-7, 96 h, Huh7 clone A replicon cells, read-out: CloneA EC90
[2] = read-out: CloneA EC90, Huh7 clone A replicon cells
[3] = Hepatitis C virus, Huh-7, 96 h, read-out: CloneA EC90, Huh7 clone A replicon cells
[4] = Huh7 clone A replicon cells, read-out: CloneA EC90

Structure (SMILES) | EC90 [1] | further results
C[C@@]1(F)[C@@H]2O[P@@](=O)(OCc3ccccc3)OC[C@H]2O[C@H]1n1ccc(=O)[nH]c1=O (single isomer, unassigned) [Compound 2a] | 25200 nM | 
C[C@@]1(F)[C@@H]2O[P@](=O)(OCC3CC3)OC[C@H]2O[C@H]1n1cnc2c(O)nc(N)nc21 (single isomer, unassigned) [Example 38b] | 26600 nM | 
COc1nc(N)nc2c1ncn2[C@@H]1O[C@@H]2COP(=O)(OC(C)C)O[C@H]2[C@@]1(C)F (single isomer, unassigned) [Example 43a] | 290 nM | 
COc1nc(N)nc2c1ncn2[C@@H]1O[C@@H]2CO[P@](=O)(OC(C)C)O[C@H]2[C@@]1(C)F (single isomer, unassigned) [Example 43b] | 60 nM | 
COc1nc(N)nc2c1ncn2[C@@H]1O[C@@H]2COP(=O)(OCc3ccccc3)O[C@H]2[C@@]1(C)F (stereo in doubt) [Example 44, 9-((2R,4aR,6R,7R,7aR)-2-Benzyloxy-7-fluoro-7-methyl-2-oxo-tetrahydro-2λ^5-furo[3,2-d][1,3,2]dioxaphosphinin-6-yl)-6-methoxy-9H-purin-2-ylamine] | 53 nM | 
CO[P@@]1(=O)OC[C@H]2O[C@@H](n3ccc(=O)[nH]c3=O)[C@](C)(F)[C@@H]2O1 [Compound 1a, 1-((2S,4aR,6R,7R,7aR)-7-Fluoro-2-methoxy-7-methyl-2-oxo-tetrahydro-2λ^5-furo[3,2-d][1,3,2]dioxaphosphinin-6-yl)-1H-pyrimidine-2,4-dione] |  | EC90 [2]: 5350 nM
CO[P@@]1(=O)OC[C@H]2O[C@@H](n3ccc(=O)[nH]c3=O)[C@](C)(F)[C@@H]2O1 [Compound 1b, 1-((2S,4aR,6R,7R,7aR)-7-Fluoro-2-methoxy-7-methyl-2-oxo-tetrahydro-2λ^5-furo[3,2-d][1,3,2]dioxaphosphinin-6-yl)-1H-pyrimidine-2,4-dione] |  | EC90 [2]: 17400 nM
C[C@@]1(F)[C@@H]2O[P@@](=O)(OCc3ccccc3)OC[C@H]2O[C@H]1n1ccc(=O)[nH]c1=O [Compound 2b, 1-((2S,4aR,6R,7R,7aR)-2-Benzyloxy-7-fluoro-7-methyl-2-oxo-tetrahydro-2λ^5-furo[3,2-d][1,3,2]dioxaphosphinin-6-yl)-1H-pyrimidine-2,4-dione] | 17700 nM | 
COP1(=O)OC[C@H]2O[C@@H](n3cnc4c(N5CCC5)nc(N)nc43)[C@](C)(F)[C@@H]2O1 (stereo partly drawn) [Compound 3, 6-Azetidin-1-yl-9-((4aR,6R,7R,7aR)-7-fluoro-2-methoxy-7-methyl-2-oxo-tetrahydro-2λ^5-furo[3,2-d][1,3,2]dioxaphosphinin-6-yl)-9H-purin-2-ylamine] |  | EC90 [2]: 750 nM
COP1(=O)OC[C@H]2O[C@@H](n3cnc4c(O)nc(N)nc43)[C@](C)(F)[C@@H]2O1 (stereo partly drawn) [Compound 4, 2-Amino-9-((4aR,6R,7R,7aR)-7-fluoro-2-methoxy-7-methyl-2-oxo-tetrahydro-2λ^5-furo[3,2-d][1,3,2]dioxaphosphinin-6-yl)-9H-purin-6-ol] |  | EC90 [3]: 11700 nM
CO[P@]1(=O)OC[C@H]2O[C@@H](n3ccc(N)nc3=O)[C@](C)(F)[C@@H]2O1 [Compound 5, 4-Amino-1-((2R,4aR,6R,7R,7aR)-7-fluoro-2-methoxy-7-methyl-2-oxo-tetrahydro-2λ^5-furo[3,2-d][1,3,2]dioxaphosphinin-6-yl)-1H-pyrimidin-2-one] |  | EC90 [3]: 8060 nM
COP1(=O)OC[C@H]2O[C@@H](n3cnc4c(NC5CCC5)nc(N)nc43)[C@](C)(F)[C@@H]2O1 (stereo partly drawn) [Compound 6, N^6-Cyclobutyl-9((4aR,6R,7R,7aR)-7-fluoro-2-methoxy-7-methyl-2-oxo-tetrahydro-2λ^5-furo[3,2-d][1,3,2]dioxaphosphinin-6-yl)-9H-purine-2,6-diamine] |  | EC90 [3]: 1550 nM
CCOc1nc(N)nc2c1ncn2[C@@H]1O[C@@H]2COP(=O)(OC)O[C@H]2[C@@]1(C)F (stereo partly drawn) [Compound 18, 6-Ethoxy-9-((4aR,6R,7R,7aR)-7-fluoro-2-methoxy-7-methyl-2-oxo-tetrahydro-2,5-furo[3,2-d][1,3,2]dioxaphosphinin-6-yl)-9H-purin-2-ylamine] |  | EC90 [4]: 480 nM
CCOc1nc(N)nc2c1ncn2[C@@H]1O[C@@H]2COP(=O)(OC(C)C)O[C@H]2[C@@]1(C)F (stereo partly drawn) [Compound 19, 6-Ethoxy-9-((4aR,6R,7R,7aR)-7-fluoro-2-isopropoxy-7-methyl-2-oxo-tetrahydro-2,5-furo[3,2-d][1,3,2]dioxaphosphinin-6-yl)-9H-purin-2-yl amine] |  | EC90 [4]: 600 nM
C[C@@]1(F)[C@@H]2O[P@](=O)(OC3CCCC3)OC[C@H]2O[C@H]1n1cnc2c(N3CCC3)nc(N)nc21 [Example 32a, 6-Azetidin-1-yl-9-((4aR,6R,7R,7aR)-2-cyclopentyloxy-7-fluoro-7-methyl-2-oxo-tetrahydro-2λ^5-furo[3,2-d][1,3,2]dioxaphosphinin-6-yl)-9H-purin-2-ylamine] | 8540 nM | 
C[C@@]1(F)[C@@H]2O[P@@](=O)(OC3CCCC3)OC[C@H]2O[C@H]1n1cnc2c(N3CCC3)nc(N)nc21 [Example 32b, 6-Azetidin-1-yl-9-((4aR,6R,7R,7aR)-2-cyclopentyloxy-7-fluoro-7-methyl-2-oxo-tetrahydro-2λ^5-furo[3,2-d][1,3,2]dioxaphosphinin-6-yl)-9H-purin-2-ylamine] | 4700 nM | 
COc1nc(N)nc2c1ncn2[C@@H]1O[C@@H]2COP(=O)(O)O[C@H]2[C@@]1(C)F [Example 41, (4aR,6R,7R,7aR)-6-(2-Amino-6-methoxy-purin-9-yl)-7-fluoro-7-methyl-2-oxo-tetrahydro-2λ^5-furo[3,2-d][1,3,2]dioxaphosphinin-2-ol] | 98 nM | 
CCOc1nc(N)nc2c1ncn2[C@@H]1O[C@@H]2COP(=O)(O)O[C@H]2[C@@]1(C)F [Example 45, (4aR,6R,7R,7aR)-6-(2-Amino-6-ethoxy-purin-9-yl)-7-fluoro-7-methyl-2-oxo-tetrahydro-2λ^5-furo[3,2-d][1,3,2]dioxaphosphinin-2-ol] | 700 nM | 
CCOc1nc(N)nc2c1ncn2[C@@H]1O[C@@H]2CO[P@](=O)(OCc3ccccc3)O[C@H]2[C@@]1(C)F [Example 48, 9-((4aR,6R,7R,7aR)-2-Benzyloxy-7-fluoro-7-methyl-2-oxo-tetrahydro-2λ5-furo[3,2-d][1,3,2]dioxaphosphinin-6-yl)-6-ethoxy-9H-purin-2-ylamine] | 320 nM | 
